Measured values published in ChEMBL document CHEMBL2321862, “Development and evaluation of novel phosphotyrosine mimetic inhibitors targeting the Src homology 2 domain of signaling lymphocytic activation molecule (SLAM) associated protein” (J Med Chem, 2013).
Activity calls are given as the source filed them. Peptide text beside a SMILES is read from it.

Key:
[1] = target: T1, SH2 domain-containing protein 1A (Homo sapiens) (UniProt O60880); test: Inhibition of recombinant 6-His-tagged SLAM associated protein SH2 domain (unknown origin) expressed in Escherichia coli BL21(DE3) binding to biotinyl-KKSLTIpYAQVQK-NH2 attached to NeutrAvidin-coated plates using p-nitrophenyl phosphate as substrate at 10 uM after 1 hr relative to control
T1 sequence (whole entry): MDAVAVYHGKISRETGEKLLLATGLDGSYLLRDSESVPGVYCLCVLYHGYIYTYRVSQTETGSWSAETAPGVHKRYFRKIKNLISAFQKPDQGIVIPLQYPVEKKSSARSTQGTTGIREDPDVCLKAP

[2] = target: T1, SH2 domain-containing protein 1A (Homo sapiens); test: Inhibition of recombinant 6-His-tagged SLAM associated protein SH2 domain (unknown origin) expressed in Escherichia coli BL21(DE3) binding to biotinyl-KKSLTIpYAQVQK-NH2 attached to NeutrAvidin-coated plates using p-nitrophenyl phosphate as substrate at 100 uM after 1 hr
[3] = target: T2, SH2 domain-containing protein 1A (Homo sapiens, UniProt O60880); test: (§1) Inhibition of recombinant 6-His-tagged SLAM associated protein SH2 domain (unknown origin) expressed in Escherichia coli BL21(DE3) binding to biotinyl-KKSLTIpYAQVQK-NH2 attached to NeutrAvidin-coated plates using p-nitrophenyl phosphate as substrate after 1 hr
T2 sequence (O60880 whole entry): T1 sequence (whole entry)

[4] = target: T1, SH2 domain-containing protein 1A (Homo sapiens); test: as §1
[5] = target: T1, SH2 domain-containing protein 1A (Homo sapiens); test: Inhibition of recombinant 6-His-tagged SLAM associated protein SH2 domain (unknown origin) expressed in Escherichia coli BL21(DE3) binding to biotinyl-KKSLTIpYAQVQK-NH2 attached to NeutrAvidin-coated plates using p-nitrophenyl phosphate as substrate up to 1 uM after 1 hr
[6] = target: T1, SH2 domain-containing protein 1A (Homo sapiens); test: as §1, with “hr in presence of calf intestine phosphatase” for “hr”

fold change (FC) [1] | inhibition [2] | IC50 [3] [µM] | inhibition [4] | Compound | inhibition [5] | inhibition [6]
0.84 | Active |  |  | COC(=O)[C@H](Cc1ccc2c(c1)COP(=O)(O)O2)NC(=O)[C@H](Cc1ccccc1)NC(=O)OCC1c2ccccc2-c2ccccc21 |  | 
0.7 | Active | 34 | Dose-dependent effect | CC(C)(C)OC(=O)NCCCC[C@H](NC(=O)[C@H](Cc1ccc2c(c1)COP(=O)(O)O2)NC(=O)OCC1c2ccccc2-c2ccccc21)C(N)=O |  | 
1.05 | Active |  |  | COC(=O)[C@H](Cc1ccc2c(c1)COP(=O)(O)O2)NC(=O)[C@H](CCCCN)NC(=O)OCC1c2ccccc2-c2ccccc21 |  | 
0.94 | Active |  |  | N=C(N)NCCC[C@H](NC(=O)[C@H](Cc1ccc2c(c1)COP(=O)(O)O2)NC(=O)OCC1c2ccccc2-c2ccccc21)C(N)=O |  | 

The next lines start with the molecule.

Compound | fold change (FC) [1] | inhibition [2] | IC50 [3] [µM] | inhibition [4] | inhibition [5] | inhibition [6]
NC(=O)[C@H](CC(=O)O)NC(=O)[C@H](Cc1ccc2c(c1)COP(=O)(O)O2)NC(=O)OCC1c2ccccc2-c2ccccc21 | 0.55 | Active | 17 | Dose-dependent effect |  | 
CC(=O)N[C@@H](CC(=O)O)C(=O)N[C@@H](CC(=O)O)C(=O)N1CCC[C@H]1C(=O)N[C@@H](CO)C(=O)N[C@@H](Cc1ccc(OP(=O)(O)O)cc1)C(=O)N[C@H](C(=O)N[C@@H](CC(N)=O)C(=O)N[C@H](C(=O)N[C@@H](CCC(N)=O)C(N)=O)C(C)C)C(C)C (HELM PEPTIDE1{[ac].D.D.P.S.[O=C([C@H](Cc1ccc(OP(=O)(O)O)cc1)N[*:1])[*:2]].V.N.V.Q.[am]}$$$$V2.0) |  |  |  |  | inactive | 
NC(=O)[C@H](Cc1ccccc1)NC(=O)[C@H](Cc1ccc2c(c1)COP(=O)(O)O2)NC(=O)OCC1c2ccccc2-c2ccccc21 | 0.73 | Active | 35 | Dose-dependent effect |  | 
CC[C@H](C)[C@H](NC(=O)[C@@H](NC(=O)[C@H](CC(C)C)NC(=O)[C@H](CO)NC(=O)[C@H](CCCCN)NC(=O)[C@H](CCCCN)NC(C)=O)[C@@H](C)O)C(=O)N[C@@H](Cc1ccc(OP(=O)(O)O)cc1)C(=O)N[C@@H](C)C(=O)N[C@@H](CCC(N)=O)C(=O)N[C@H](C(=O)N[C@@H](CCC(N)=O)C(=O)N[C@@H](CCCCN)C(N)=O)C(C)C (HELM PEPTIDE1{[ac].K.K.S.L.T.I.[O=C([C@H](Cc1ccc(OP(=O)(O)O)cc1)N[*:1])[*:2]].A.Q.V.Q.K.[am]}$$$$V2.0) |  |  |  | Dose-dependent effect |  | inactive
COC(=O)[C@H](Cc1ccc2c(c1)COP(=O)(O)O2)NC(=O)[C@H](CCCNC(=N)N)NC(=O)OCC1c2ccccc2-c2ccccc21 | 0.91 | Active |  |  |  | 
COC(=O)[C@H](Cc1ccc2c(c1)COP(=O)(O)O2)NC(=O)[C@H](COC(C)(C)C)NC(=O)OCC1c2ccccc2-c2ccccc21 | 0.85 | Active |  |  |  | 
NC(=O)C[C@H](NC(=O)[C@H](Cc1ccc2c(c1)COP(=O)(O)O2)NC(=O)OCC1c2ccccc2-c2ccccc21)C(N)=O | 1.29 | Active |  |  |  | 
CC(C)C[C@H](NC(=O)[C@H](Cc1ccc2c(c1)COP(=O)(O)O2)NC(=O)OCC1c2ccccc2-c2ccccc21)C(N)=O | 0.99 | Active |  |  |  | 
NC(=O)[C@H](CC(=O)O)NC(=O)[C@@H](N)Cc1ccc2c(c1)COP(=O)(O)O2 |  |  |  | inactive |  | 
COC(=O)[C@H](Cc1ccc2c(c1)COP(=O)(O)O2)NC(=O)[C@H](CC(=O)OC(C)(C)C)NC(=O)OCC1c2ccccc2-c2ccccc21 | 0.9 | Active |  |  |  | 
